Measured values published in patent publication US8377957B2, “Hydroxy and alkoxy substituted 1H-imidazoquinolines and methods” (3M Innovative Properties Company, priority 2005, dated 2013).

Structure (SMILES) | melting point [°C]
C[C@@H](c1ccccc1)n1c(O)nc2c(N)nc3ccccc3c21 [Example 5, 4-Amino-1-[(1S)-1-phenylethyl]-1H-imidazo[4,5-c]quinolin-2-ol] | 292 to 295
COc1nc2c(N)nc3ccccc3c2n1Cc1ccccc1 [Example 7, 1-Benzyl-2-methoxy-1H-imidazo[4,5-c]quinolin-4-amine] | 240 to 242
